Results from patent US5401490A, “Markers of tissue hypoxia” (priority 1989, dated 1995).
Read-outs that look alike come from different tables or passages of the source.

What was measured:
[1] = Tissue distribution of radioactivity after intravenous injection; assay type: in vivo, BALB/C mice; details: mouse, iv, i.v.; for tissue uptake at 0.5 h: 0.50 h
Text: Tables 1 and 2 show the percent of injected IAZG and IAZA respectively per gram of wet tissue for selected tissues excised from BALB/C mice bearing EMT-6 tumors. This tumor model is known to have a high hypoxic fraction (0.33) (16). […] Hepatobiliary excretion may play a role in blood clearance as evidenced by elevated liver radioactivity and the appearance of activity in the intestine. Some oxidative or reductive metabolites of the 2-nitroimidazoles may also become bound to liver tissue, as was postulated in an in vivo study with ^14 C-MISO (6). This supposition is supported by the persistence of liver radioactivity at longer time periods. […] At 8 and 24 hours thyroid levels of IAZG are 7.2 and 30.9% of the total body activity and for IAZA they are 7.9 and 33.8% of total body activity. EXAMPLE 11 TISSUE DISTRIBUTION AND EXCRETION Tumor propagation of EMT-6 tumors in BALB/C mice was accomplished by subcutaneous injection of a cell suspension (10^5 cells in 0.1 mL) as described previously (10). Tumors reached about 10 mm in diameter (≈0.5 g) at 12 to 14 days, at which time each animal was given a bolus intravenous injection of ^125 I-labelled test drug via the tail vein (40 to 60 kBq in 0.1 mL). At set time periods the animals were asphyxiated with CO2 and exsanguinated via cardiac puncture. Tissues were dissected, weighed wet into vials and counted for ^125 I-activity. Whole-body activity was determined by summation of total activity in tissues and in residual carcass, and blood activity was determined from the blood aliquot, assuming blood to be 6.5% of the total body weight. EXAMPLE 12 Male BALB/c mice (20-25 g) were inoculated subcutaneously in the left flank with a suspension of murine EMT-6 cells (10^5 cells in 0.1 mL) (14). After 12 to 14 days, when the tumors reached the desired size (8-10 mm diameter), each mouse received a single intravenous (iv) injection of ^125 I-IAZA (59 kBq in 0.1 mL). […] Heart, lung, liver, spleen, muscle, bone, thyroid, kidney, stomach, small intestine, tail, tumor and skin were removed upon necropsy, weighed and analyzed for ^125 I using a Beckman Model 8000 gamma scintillation counter. The remaining carcass mass was also weighed and radioassayed.

EMT-6 cells = test: Cell uptake / binding to the acid insoluble (macromolecular) fraction of EMT-6 cells; assay type: cell-based, mouse
Experimental: The binding of IAZG to the acid precipitable fraction of EMT-6 cells in vitro is dependent on the degree of hypoxia as shown in FIG. 4. […] To assess the relative efficiency of uptake of the test compounds, the initial binding rate in terms of pmol/10^6 cells/h was determined at several different concentrations. […] This is the highest binding rate measured to date for any 2-nitroimidazole derivative and is 4 to 8 times greater than MISO.
Initial binding rates were measured (FIG. 8) at four concentrations of IAZA (3, 10, 30 and 100 μM), using normally oxygenated and hypoxic EMT-6 cell cultures as described previously (13). Similar studies at the same concentration of misonidazole were used as controls.
EXAMPLE 8 CELL UPTAKE STUDIES
The uptake of test drugs into EMT-6 cell suspensions, under oxic and hypoxic conditions, was determined as described previously (18, 13). The data were analyzed in terms of drug binding to the macromolecular fraction at various times and at various test drug concentrations (FIG. 4). The initial binding rate, in units of pmol/10^6 cells per hour for each drug, was determined from the binding data (FIG. 5).

[2] = blood, read-out: Percent of Injected Dose per Gram, Blood
[3] = intestine, read-out: Percent of Injected Dose per Gram, Intestine
[4] = kidney, read-out: Percent of Injected Dose per Gram, Kidney
[5] = liver, read-out: Percent of Injected Dose per Gram, Liver
[6] = lung, read-out: Percent of Injected Dose per Gram, Lung
[7] = muscle, read-out: Percent of Injected Dose per Gram, Muscle
[8] = stomach, read-out: Percent of Injected Dose per Gram, Stomach
[9] = tumor, read-out: Percent of Injected Dose per Gram, Tumor

## O=[N+]([O-])c1nccn1[C@@H]1O[C@H](CI)[C@H](O)[C@H](O)[C@H]1O [IAZG, 1-(6-iodo-6-deoxy-β-D-galactopyranosyl)-2-nitroimidazole]
[1]; [2]
  tissue uptake at 0.25 h: 1.83 ± 0.17 %ID/g
  tissue uptake at 0.5 h: 1.11 ± 0.16 %ID/g
  tissue uptake at 1 h: 0.86 ± 0.26 %ID/g
  tissue uptake at 2 h: 0.53 ± 0.1 %ID/g
  tissue uptake at 4 h: 0.28 ± 0.07 %ID/g
  tissue uptake at 8 h: 0.16 ± 0.03 %ID/g
  tissue uptake at 24 h: 0.06 ± 0.02 %ID/g
[1]; [3]
  tissue uptake at 0.25 h: 6.82 ± 5.2 %ID/g
  tissue uptake at 0.5 h: 3.65 ± 1.36 %ID/g
  tissue uptake at 1 h: 1.16 ± 0.25 %ID/g
  tissue uptake at 2 h: 0.82 ± 0.45 %ID/g
  tissue uptake at 4 h: 0.29 ± 0.07 %ID/g
  tissue uptake at 8 h: 0.17 ± 0.08 %ID/g
  tissue uptake at 24 h: 0.05 ± 0.02 %ID/g
[1]; [4]
  tissue uptake at 0.25 h: 15.6 ± 1.15 %ID/g
  tissue uptake at 0.5 h: 8.94 ± 1.2 %ID/g
  tissue uptake at 1 h: 4.56 ± 1.41 %ID/g
  tissue uptake at 2 h: 2.67 ± 0.51 %ID/g
  tissue uptake at 4 h: 1.1 ± 0.29 %ID/g
  tissue uptake at 8 h: 0.4 ± 0.02 %ID/g
  tissue uptake at 24 h: 0.09 ± 0.03 %ID/g
[1]; [5]
  tissue uptake at 0.25 h: 5.5 ± 0.79 %ID/g
  tissue uptake at 0.5 h: 2.96 ± 0.49 %ID/g
  tissue uptake at 1 h: 1.48 ± 0.24 %ID/g
  tissue uptake at 2 h: 1.4 ± 0.56 %ID/g
  tissue uptake at 4 h: 0.43 ± 0.12 %ID/g
  tissue uptake at 8 h: 0.2 ± 0.02 %ID/g
  tissue uptake at 24 h: 0.08 ± 0.02 %ID/g
[1]; [6]
  tissue uptake at 0.25 h: 2.77 ± 0.44 %ID/g
  tissue uptake at 0.5 h: 1.46 ± 0.24 %ID/g
  tissue uptake at 1 h: 0.74 ± 0.12 %ID/g
  tissue uptake at 2 h: 0.61 ± 0.17 %ID/g
  tissue uptake at 4 h: 0.33 ± 0.09 %ID/g
  tissue uptake at 8 h: 0.16 ± 0.02 %ID/g
  tissue uptake at 24 h: 0.07 ± 0.01 %ID/g
[1]; [7]
  tissue uptake at 0.25 h: 1.31 ± 0.21 %ID/g
  tissue uptake at 0.5 h: 0.7 ± 0.18 %ID/g
  tissue uptake at 1 h: 0.37 ± 0.19 %ID/g
  tissue uptake at 2 h: 0.34 ± 0.2 %ID/g
  tissue uptake at 4 h: 0.14 ± 0.03 %ID/g
  tissue uptake at 8 h: 0.06 ± 0.02 %ID/g
  tissue uptake at 24 h: 0.02 ± 0.01 %ID/g
[1]; [8]
  tissue uptake at 0.25 h: 3.29 ± 1.07 %ID/g
  tissue uptake at 0.5 h: 2.14 ± 1.01 %ID/g
  tissue uptake at 1 h: 1.38 ± 0.42 %ID/g
  tissue uptake at 2 h: 1.49 ± 1.12 %ID/g
  tissue uptake at 4 h: 0.55 ± 0.3 %ID/g
  tissue uptake at 8 h: 0.42 ± 0.35 %ID/g
  tissue uptake at 24 h: 0.06 ± 0.04 %ID/g
[1]; [9]
  tissue uptake at 0.25 h: 1.75 ± 0.46 %ID/g
  tissue uptake at 0.5 h: 1.45 ± 0.24 %ID/g
  tissue uptake at 1 h: 1.21 ± 0.21 %ID/g
  tissue uptake at 2 h: 0.77 ± 0.17 %ID/g
  tissue uptake at 4 h: 0.43 ± 0.09 %ID/g
  tissue uptake at 8 h: 0.23 ± 0.09 %ID/g
  tissue uptake at 24 h: 0.08 ± 0.01 %ID/g
EMT-6 cells
  binding with time: appears to increase linearly with time
EMT-6 cells; 10 μM, various oxygen levels
  oxygen dependence of uptake/binding: greatest uptake of IAZG occurs under nitrogen incubation with a decrease in the binding rate as the oxygen concentration to which the cells are exposed is increased
EMT-6 cells; hypoxic, vs IAZA or MISO
  initial binding rate, comparison: higher binding rate than IAZA or MISO
